Measured values taken from patent US4990537A, “Anti influenza agent” (priority 1988, dated 1991).

Assays:
[1] = system: human influenza virus A/WSN; experiment: Inhibitory activities against plaque formation of human influenza virus (plaque assay in MDCK cells); type: cell-based; conditions: for inhibitory activities against growth of human influenza virus compared with amantadine: in words, versus amantadine
[2] = system: MDCK cells (dog kidney cells); conditions: for Cytotoxicity (printed in the inhibition rate column): 100.0 μg/ml, plaque assay, three days; for range of safety compared with amantadine: in words, versus amantadine
[3] = system: human influenza virus (A/Fukuoka/80); experiment: animal or person; type: in vivo, human influenza virus; embryonated chicken eggs; conditions: for IC50: unidentified influenza virus, 48 h, read-out: Concentration for 50% inhibition against proliferation of virus; for activities for inhibiting proliferation of human influenza virus compared with amantadine: in words, versus amantadine
in vitro = conditions: dog, mdck
[4] = unidentified influenza virus, WSN, MDCK, 72 h, read-out: Inhibition rate (%) of plaque formation

Compound | inhibition at 30 µg/mL [1, 4] | cytotoxicity [2] | Cytotoxicity (printed in the inhibition rate column) [2] | IC50 [3] | inhibitory activities against growth of human influenza virus compared with amantadine [1] | inhibition at 10 µg/mL [1, 4] | inhibition at 20 µg/mL [1, 4] | inhibition at 40 µg/mL [1, 4] | inhibition at 50 µg/mL [1, 4] | inhibition at 100 µg/mL [1, 4] | MNTC at 72 h (in vitro) | range of safety compared with amantadine [2] | activities for inhibiting proliferation of human influenza virus compared with amantadine [3] | inhibition at 1 µg/mL [1, 4] | inhibition at 2.5 µg/mL [1, 4] | inhibition at 5 µg/mL [1, 4] | inhibition at 25 µg/mL [1, 4]
NC12CC3CC(CC(C3)C1)C2 [Amantadine, amantadine, reference compound] | 60.1% | cytotoxicity slightly but distinctly | Cytotoxicity | > 100 mg/L |  |  |  |  |  |  |  |  |  |  |  |  | 
CN(C)C(=O)COC(=O)Cc1ccc(OC(=O)c2ccc(NC(=N)N)cc2)cc1.CS(=O)(=O)O [Compound B, N,N-dimethylcarbamoylmethyl p-(p-guanidinobenzoyloxy)phenylacetate methanesulfonate] |  |  |  | 1.25 mg/L | even stronger inhibitory activities against growth of human influenza virus than amantadine | 29.5% | 51.5% | 80.5% | 88% | 100% | ≥ 1000 µg/mL | wide range of safety as compared with amantadine | stronger activities for inhibiting proliferation of human influenza virus |  |  |  | 
CS(=O)(=O)O.CS(=O)(=O)O.N=C(N)Nc1ccc(C(=O)Oc2ccc3cc(C(=N)N)ccc3c2)cc1 [Compound A, 6-Amidino-2-naphthyl p-guanidinobenzoate dimethanesulfonate] |  |  | Cytotoxicity | 0.125 mg/L | even stronger inhibitory activities against growth of human influenza virus than amantadine | 100% |  |  | 100% |  | ≥ 50 µg/mL | wide range of safety as compared with amantadine | stronger activities for inhibiting proliferation of human influenza virus | 19.9% | 27.2% | 52.1% | 100%
